The source of these data is US8901167B2, “Product and process for inhibition of biofilm development” (National Jewish Health, priority 2004, dated 2014).

Converted amounts (≈) assume the structure as drawn.

For data set [1], the system named is P. aeruginosa strain PA01. As to the kind of experiment: Antibiotic susceptibility of planktonic population (MIC), NCCLS assay. The format is cell-based. The settings on record: Pseudomonas aeruginosa. As to the method: (§1) As human neutrophils enhance biofilm development, the inventors questioned if biofilms formed in the presence of neutrophils had altered patterns of antibiotic resistance. Biofilms and planktonic P. aeruginosa grown in the presence or absence of neutrophils for 24 hours were tested for susceptibility to four clinically relevant classes of antibiotics. […] No significant changes in antibiotic susceptibilities was detected in planktonic P. aeruginosa in the presence of neutrophils. This selective modification of antibiotic resistance supports the conclusion that neutrophils mediate phenotypic changes in addition to greater biofilm thickness.

The subject of data set [2] is P. aeruginosa strain PA01 biofilm. Description: Antibiotic susceptibility of biofilm population (MBEC), NCCLS assay. The format is cell-based. Particulars: for Susceptibility of biofilms grown in the presence of neutrophils versus absence: biofilms grown 24 hours. As to the method:
as §1

Data set [3] relates to P. aeruginosa biofilm. As to the kind of experiment: NUNC-TSP biofilm growth of P. aeruginosa suspended in mucin. The format is cell-based. From the text: When P. aeruginosa was suspended in mucin rather then RPMI media, a similar effect was observed on NUNC-TSP biofilm growth. […] These aggregates of P. aeruginosa may represent the predominant structure of biofilms that are present in the CF airway, and the combination of neutrophils with mucin appears to enhance their formation.

In data set [4] the test system is P. aeruginosa PA01 biofilm. The format is cell-based. The settings on record: for Effect on neutrophil-induced enhancement of biofilm formation: CV staining, DNase I 90 Kunitz units/ml, gelsolin 200 nM, FIG. 3C. On the procedure: A static biofilm assay was used with polypropylene tubes (9). PA01 was grown overnight under constant rotation to late stationary phase at 37° C. in LB. All biofilm studies were initiated with neutrophils (1×10^7 cells/ml) and PA01 (1×10^6 CFU/ml) in suspension, and cultures were incubated under stationary conditions at 37° C. P. aeruginosa adherent to the tube was considered to be a biofilm, while bacteria not adherent to the surface of the tube was considered to be “planktonic”. Viable P. aeruginosa biofilm and planktonic cells were quantified by sonicating the adherent bacteria in LB, followed by serial dilution and plating to determine CFUs on Pseudomonas Isolation Agar (Difco, Sparks, Md.). P. aeruginosa biofilm density was quantified by crystal violet (CV) staining (9). The contribution of background staining of neutrophil components, tubes and reagents were subtracted from depicted values. Neutrophils were lysed with 0.1% Tween 20 (BioRad, Hercules, Calif.) for 30 min. Neutrophil lysates relatively depleted of F-actin were prepared by precipitating the F-actin using the F-actin/G-actin In Vivo Biochem Kit (Cytoskeleton, Denver, Colo.). The total protein present in the whole cell lysate and the F-actin depleted lysate was determined by the Bradford Protein Assay (BioRad, Hercules, Calif.). Biofilm exopolysaccharide was determined by total carbohydrate assays as previously described (15).
Genomic DNA was isolated from neutrophils and P. aeruginosa using the DNeasy Tissue Kit (Qiagen, Valencia, Calif.) according to the manufacturer's protocol. Actin and DNA polymerization was performed as described previously (38). Effects of filament cleavage was tested by initially treating the samples with 90 Kunitz units/ml of DNase I (43) and/or 200 nM gelsolin (Sigma) (42). Granule proteins were isolated from homogenized human neutrophils by differential centrifugation in a discontinuous Percoll/sucrose gradient (34). Heavy and light granules were immediately suspended in RPMI media and added to P. aeruginosa.

Another data set relates to actin-DNA filaments. Description: Fluorescence microscopy of actin-DNA filaments in neutrophil lysates and CF sputum. Further details: species or system human. The settings on record: data not shown. On the procedure:
Samples of sputa from CF patients chronically infected with P. aeruginosa were frozen in liquid nitrogen and stored at −20° C. At the time of analysis, sputa were thawed and resuspended carefully in PBS (1:4 vol/vol ratio) containing 10^7 CFU/ml of P. aeruginosa labeled with the intracellular fluorescent conjugate (CFDA SE) as described in the actin-binding protocol. Samples were incubated for 4 hours at 37° C., then dried on Superfrost/Plus microscope slides (Fisher Scientific) and stained for 15 min with 10 μl of 0.6 μM Alexa Fluor 546 Phalloidin (Molecular Probes), 10 μl of 0.2 μM DAPI, dilactate (Molecular Probes), to visualize F-actin and DNA. Visualization of actin (546/576 nm), DNA (358/461 nm), and P. aeruginosa (492/517 nm) were performed sequentially on the same field, followed by an “overlay” view at all 3 wavelengths. Neutrophil lysates were also combined with P. aeruginosa labeled with CFDA SE for 4 hrs at 37° C., and staining of F-actin and DNA was conducted as described for CF sputa.

Data set [5] concerns P. aeruginosa biofilm. Particulars: literature refs 39, 43; cited from earlier work.
Where [6] appears, read: PA01 + PMN, planktonic, grown with neutrophils 24 hours.
Where [7] appears, read: PA01 planktonic, without neutrophils.
Setting [8] is: PA01 + PMN, biofilm grown with neutrophils 24 hours.
Setting [9] is: PA01 biofilm, without neutrophils.

For the compound `CC[C@H]1OC(=O)[C@H](C)[C@@H](O[C@H]2C[C@@](C)(OC)[C@@H](O)[C@H](C)O2)[C@H](C)[C@@H](O[C@@H]2O[C@H](C)C[C@H](N(C)C)[C@H]2O)[C@](C)(O)C[C@@H](C)CN(C)[C@H](C)[C@@H](O)[C@]1(C)O` [Azithromycin], the MIC in data set [1] (setting [6]) is 32 µg/mL; in data set [1] (setting [7]) it was 64 µg/mL (≈ 85.4 µM). Also, the figures for the MBEC in data set [2] (setting [8]) and in data set [2] (setting [9]) were 1024 µg/mL and over 1024 µg/mL, respectively. The “Susceptibility of biofilms grown in the presence of neutrophils versus absence” value (“Susceptibility … of neutrophils versus absence” below) in data set [2] is given as “unchanged”.

`NC[C@H]1O[C@H](O[C@H]2[C@H](O)[C@@H](O[C@H]3O[C@H](CO)[C@@H](O)[C@H](N)[C@H]3O)[C@H](N)C[C@@H]2N)[C@H](N)C[C@@H]1O` [Tobramycin]: the MIC in data set [1] (setting [6]) was 0.5 µg/mL; in data set [1] (setting [7]), 1 µg/mL (≈ 2.14 µM). Further, the MBEC was 256 µg/mL in data set [2] (setting [8]) and over 1024 µg/mL in data set [2] (setting [9]). Moreover, in data set [2], the “Susceptibility … of neutrophils versus absence” value was “significantly greater susceptibility”.

As for mucin, the “Effect on biofilm growth” value was “increased biofilm growth” in the data set with P. aeruginosa biofilm [3] (absence of neutrophils) and “no change” in the data set on P. aeruginosa biofilm [3] (presence of neutrophils).

On to gelsolin, for which the “Effect on neutrophil-induced enhancement of biofilm formation” value in data set [4] is recorded as “significantly reduced the neutrophil-induced enhancement of the biofilm”.

Take `CC(C)(O/N=C(\C(=O)N[C@@H]1C(=O)N2C(C(=O)[O-])=C(C[n+]3ccccc3)CS[C@H]12)c1csc(N)n1)C(=O)O` [Ceftazidime]: the MIC in data set [1] (setting [6]) was 2 µg/mL; in data set [1] (setting [7]), 2 µg/mL (≈ 3.66 µM). Moreover, the MBEC in data set [2] (setting [8]) and in data set [2] (setting [9]) was over 1024 µg/mL each time. The “Susceptibility … of neutrophils versus absence” value in data set [2] is listed as “unchanged”.

As for DNase, in data set [4], the “Effect on bacterial growth or neutrophil survival” value was “without significantly inhibiting bacterial growth or neutrophil survival” and the “Effect on neutrophil-induced enhancement of biofilm formation” value is “abolished much of the neutrophil-induced enhancement of biofilm formation”. Moreover, in the data set with actin-DNA filaments, the “Disruption of actin-DNA filaments” value is given as “near complete disruption of the actin-DNA filaments”. For the same compound, the “Effect on P. aeruginosa biofilm formation” value in the data set with P. aeruginosa biofilm [5] was “strongly inhibited biofilm formation”.

With `O=C(O)c1cn(C2CC2)c2cc(N3CCNCC3)c(F)cc2c1=O` [Ciprofloxacin], the MIC in data set [1] (setting [6]) worked out at 2 µg/mL; in data set [1] (setting [7]), 0.5 µg/mL (≈ 1.51 µM). For the same compound, the MBEC in data set [2] (setting [8]) is 128 µg/mL; in data set [2] (setting [9]), 512 µg/mL. In addition, the “Susceptibility … of neutrophils versus absence” value in data set [2] was “significantly greater susceptibility”.

For orientation: MIC means the lowest concentration that inhibits growth of the organism.
